Results published in article PMC4790305, “An FDA-Drug Library Screen for Compounds with Bioactivities against Meticillin-Resistant Staphylococcus aureus (MRSA)” (Antibiotics, 2015).
Values after ≈ are worked out from the molar mass of the structure shown. Read-outs that look alike come from different tables or passages of the source.

How the values were obtained:
[1] = system: MRSA USA 100 (ATCCBAA-1681); assay: Minimum inhibitory concentration (MIC) assay, MRSA USA 100; assay type: cell-based, meticillin-resistant Staphylococcus aureus; conditions: Staphylococcus aureus, read-out: MRSA MICs USA 100
Description: (§1) The 1163 FDA-approved drugs were purchased as a library set from Selleckchem (catalog #L1300). For MIC assays, Ivacaftor, Mupirocin and Tigecycline were purchased from Santa Cruz Biotechnology (Dallas, TX, USA). All other test compounds were purchased from Sigma-Aldrich (St. Louis, MO, USA) and were used without further purification. MRSA strains USA 100 (ATCCBAA-1681), USA 300 (ATCC-BAA-1680), USA400 (ATCC-BAA-1707) and VISA (ATCC-700699) were purchased from ATCC (Manassas, VA, USA).
(§2) The MICs of antibiotics and peptides were determined using the microdilution method from the Clinical and Laboratory Standards Institute (CLSI) guidelines. Briefly, bacteria were grown fresh from frozen stock in MH2 agar at 37 °C. After an overnight incubation, five MRSA colonies were selected to grow in cation-adjusted MH2 broth (BD Biosciences catalog #212322) in a shaker incubator at 37 °C, 220 RPM. Cells were grown to an optical density (OD600) of 0.15–0.16 using a Microplate Spectrophotometer (Molecular Devices Spectra Max Plus), which corresponds to 1–2 × 10^8 CFU/mL. Test compounds were constituted into 4 mM DMSO stock solutions and then subjected to two-fold serial dilution in a 96-well plate with concentrations ranging from 100 to 0.2 μM in duplicates. The amount of 50 μL of microbial culture containing ~1–2 × 10^6 CFU/mL of microbes in the respective broths was introduced into each well containing 50 μL of compound. After an overnight incubation at 35 °C, OD600 measurements were conducted using the Microplate Spectrophotometer. The MIC was defined as the lowest drug concentration (μM) required to inhibit microbial growth.

VISA (ATCC-700699) = assay: Minimum inhibitory concentration (MIC) assay, VISA; assay type: cell-based, meticillin-resistant Staphylococcus aureus; conditions: Staphylococcus aureus, ATCC 700699 / MRSA / VISA, read-out: MRSA MICs VISA
Description: as §1, §2

[2] = system: MRSA USA400 (ATCC-BAA-1707); assay: Minimum inhibitory concentration (MIC) assay, MRSA USA 400; assay type: cell-based, meticillin-resistant Staphylococcus aureus; conditions: Staphylococcus aureus, read-out: MRSA MICs USA 400
Description: as §1, §2

[3] = system: Adult normal human epidermal keratinocytes (NHEK); assay: Human epidermal keratinocyte viability (GI50) assay; assay type: cell-based; conditions: 120 h, read-out: Keratinocyte GI50
Description: Adult normal human epidermal keratinocytes (NHEK) were purchased from Lonza (catalog #00192627, Basel, Switzerland) and cultured in keratinocyte growth medium (Lonza KGM-Gold Bullet Kit) containing growth supplements (Lonza Reagent Pack) at 5% CO2 (37 °C). The cell viability assay was performed using the CellTiter-Glo Luminescent Cell Viability Assay protocol from Promega (www.promega.com, Fitchburg, WI, USA). Briefly, NHEK were treated with test compounds in keratinocyte growth medium in 96-well plates (Thermo Scientific Nunclon Delta, Waltham, MA, USA). Treated cells were incubated for 5 days at 5% CO2 (37 °C). Promega CellTiter-Glo Reagent was added and plates were shaken on an orbital shaker for […]. Next, well contents (100 μL) from each well were transferred into opaque 96-well plates (PerkinElmer OptiPlate-96) and luminescence measured by a microplate reader (Tecan Safire2).

MRSA USA300 [4] = assay: Bactericidal/static determination assay; assay type: cell-based, meticillin-resistant Staphylococcus aureus; conditions: MRSA USA300, 4× MIC; bactericidal when ≥99.9% cell death
Description: After the MICs of test compounds were determined using the microdilution method described in Section 2.2, the entire well contents (100 μL) corresponding to 4× the MIC of the antibiotic or peptide were transferred and spread on fresh sterile MH2 agar plates. The plates were incubated overnight at 37 °C and the number of colony forming units (CFU) was determined the next day. A compound was classified as bactericidal when ≥99.9% cell death was observed.

[5] = system: MRSA USA 300 (ATCC-BAA-1680); assay: Minimum inhibitory concentration (MIC) assay, MRSA USA 300; assay type: cell-based, meticillin-resistant Staphylococcus aureus; conditions: Staphylococcus aureus, read-out: MRSA MICs USA 300
Description: as §1, §2

MRSA USA300 [6] = assay: Time-kill assay; assay type: cell-based, meticillin-resistant Staphylococcus aureus; conditions: MRSA USA300, 4× MIC, within 6 h
Description: Bacteria cells were grown to 1 × 10^8 CFU/mL in MH2 broth and then diluted […] into 5 mL aliquots to a density of 1 × 10^6 CFU/mL in a flask. Test compounds pre-dissolved in DMSO corresponding to 4× their MICs were then added into each flask with a final DMSO concentration of 2.5% v/v. The negative control was 2.5% DMSO. The flasks were incubated in a shaking incubator (220 RPM) at 37 °C. Samples (100 μL) were taken hourly from the flasks between t = 0 and t = 6 h. The samples were serially diluted in MH2 broth before plating on sterile MH2 agar and incubated overnight at 37 °C. A bacteria count for each plate was conducted the next day. A graph of Log CFU/mL was plotted against time to obtain the time-kill graph.

[7] = system: panel of clinical MRSA strains (USA 100, USA 300, USA 400 and VISA); assay: MIC assay against panel of clinical MRSA strains; assay type: cell-based, meticillin-resistant Staphylococcus aureus; conditions: Staphylococcus aureus; across USA 100, USA 300, USA 400 and VISA
Description: as §1, §2

MRSA USA100 = assay: Single-point 10 μM bacteria growth inhibition assay; assay type: cell-based, meticillin-resistant Staphylococcus aureus; conditions: MRSA USA 100
Description: as §1
MRSA USA100 was grown from frozen glycerol stock on Mueller Hinton 2 (MH2) agar overnight at 37 °C. Five colonies were selected from the agar plate and grown in cation-adjusted MH2 broth (BD Biosciences catalog #212322, Franklin Lakes, NJ, USA) in a shaker incubator at 37 °C, 220 RPM. Cells were grown to 1–2 × 10^8 CFU/mL and diluted 1:100 in MH2 broth. An amount of 50 μL of test compounds pre-dissolved in MH2 broth at 20 μM concentrations were added in duplicates into each well in a 96-well plate. A total of 50 μL of bacteria inoculums containing ~1 × 10^6 CFU/mL of bacteria in MH2 broth was introduced into each well containing the test compounds. The final DMSO concentration was kept at 2.5% in each well. After an overnight incubation at 35 °C, optical density (OD600) of each well was determined using the Microplate Spectrophotometer (Molecular Devices Spectra Max Plus, Sunnyvale, CA, USA).

[8] = cited from earlier work
[9] = system: human carcinoma cell lines; conditions: cited from earlier work
[10] = 5 days incubation, CellTiter-Glo

| Compound | MIC ([1]; microdilution, overnight 35 °C) | MIC (VISA (ATCC-700699); microdilution, overnight 35 °C) | MIC ([2]; microdilution, overnight 35 °C) | GI50 [3, 10] | Bactericidal/static classification (MRSA USA300 [4]) | MIC ([5]; microdilution, overnight 35 °C) | log reduction in bacteria count (MRSA USA300 [6]) | MIC [7] | Antibacterial activity in single-point screen (MRSA USA100) | oral LD50 [8] | cytotoxic concentrations towards human carcinoma cell lines [9] | MIC [1] | MIC (VISA (ATCC-700699)) | MIC [2] | GI50 [3] | MIC [5] |
| --- | --- | --- | --- | --- | --- | --- | --- | --- | --- | --- | --- | --- | --- | --- | --- | --- |
| CC(=O)NC[C@H]1CN(c2ccc(N3CCOCC3)c(F)c2)C(=O)O1 [Linezolid] | 6.25 µM (≈ 2.11 µg/mL) | 3.13 µM (≈ 1.06 µg/mL) | 6.25 µM (≈ 2.11 µg/mL) | > 100 µM | bacteriostatic | 6.25 µM (≈ 2.11 µg/mL) | less than a log reduction | – | – | – | – | – | – | – | – | – |
| C/C(=C\C(=O)OCCCCCCCCC(=O)O)C[C@@H]1OC[C@H](C[C@@H]2O[C@H]2[C@@H](C)[C@H](C)O)[C@@H](O)[C@H]1O [Mupirocin] | 0.78 µM (≈ 0.39 µg/mL) | > 100 µM | 0.39 µM (≈ 0.195 µg/mL) | > 50 µM | – | 0.39 µM (≈ 0.195 µg/mL) | – | – | – | – | – | – | – | – | – | – |
| O=C(Nc1ccc([N+](=O)[O-])cc1Cl)c1cc(Cl)ccc1O [Niclosamide] | 0.78 µM (≈ 0.255 µg/mL) | 0.39 µM (≈ 0.128 µg/mL) | 0.78 µM (≈ 0.255 µg/mL) | < 0.2 µM | – | 0.39 µM (≈ 0.128 µg/mL) | – | 0.39 to 0.78 µM (≈ 0.128 to 0.255 µg/mL) | either bacteriostatic or bactericidal | > 1000 mg/kg | sub-micromolar | – | – | – | – | – |
| OC1(c2ccc(Cl)c(C(F)(F)F)c2)CCN(CCCC(c2ccc(F)cc2)c2ccc(F)cc2)CC1 [Penfluridol] | 3.13 µM (≈ 1.64 µg/mL) | 3.13 µM (≈ 1.64 µg/mL) | 3.13 µM (≈ 1.64 µg/mL) | 2.1 ± 0.6 µM | – | 3.13 µM (≈ 1.64 µg/mL) | – | 3.13 µM (≈ 1.64 µg/mL) | either bacteriostatic or bactericidal | – | – | – | – | – | – | – |
| CN(C)c1cc(NC(=O)CNC(C)(C)C)c(O)c2c1C[C@H]1C[C@H]3[C@H](N(C)C)C(O)=C(C(N)=O)C(=O)[C@@]3(O)C(O)=C1C2=O [Tigecycline] | 0.78 µM (≈ 0.457 µg/mL) | 1.56 µM (≈ 0.914 µg/mL) | 0.78 µM (≈ 0.457 µg/mL) | 20.6 ± 4.2 µM | – | 0.78 µM (≈ 0.457 µg/mL) | – | – | – | – | – | – | – | – | – | – |
| CN[C@H](CC(C)C)C(=O)N[C@H]1C(=O)N[C@@H](CC(N)=O)C(=O)N[C@H]2C(=O)N[C@H]3C(=O)N[C@H](C(=O)N[C@H](C(=O)O)c4cc(O)cc(O)c4-c4cc3ccc4O)[C@H](O)c3ccc(c(Cl)c3)Oc3cc2cc(c3O[C@@H]2O[C@H](CO)[C@@H](O)[C@H](O)[C@H]2O[C@H]2C[C@](C)(N)[C@H](O)[C@H](C)O2)Oc2ccc(cc2Cl)[C@H]1O [Vancomycin] | – | – | – | – | – | – | – | – | – | – | – | 0.78 µM (≈ 1.13 µg/mL) | 6.25 µM (≈ 9.06 µg/mL) | 0.78 µM (≈ 1.13 µg/mL) | > 100 µM | 0.78 µM (≈ 1.13 µg/mL) |
